What is called IC50 is the concentration at which inhibition is half-maximal.

This is an account of results in PMC2866477, “Anticancer Effect and Structure-Activity Analysis of Marine Products Isolated from Metabolites of Mangrove Fungi in the South China Sea” (Marine Drugs, 2010).

The test system of one series is pcDNA3.1(+) DNA. The series can be described thus: DNA binding assay (agarose gel electrophoresis). Conditions: 10, 100 or 200 μmol/L with 1 μg pcDNA3.1(+), 37 °C, 3 h; 1% agarose gel. On the procedure:
10, 100 or 200 μmol/L compounds were incubated with 1 μg pcDNA3.1(+) at 37 °C for 3 h. The mixtures were then subjected to electrophoresis on a 1% agarose gel, pre-stained with 0.5 μg/ml ethidium bromide, at 60 V for 40 min. Doxorubicin (DOX) was used as a positive control.

Another series has as its system A549 cells. The series can be described thus: MTT cytotoxicity assay, A549 cells. The series is classed as cell-based. Conditions: Homo sapiens, 72 h treatment, A549 lung carcinoma cells. The protocol: (§1) The cell lines were cultured in DMEM or RPMI 1640 containing 10% fetal bovine serum at 37 °C in the presence of 5% CO2. The cell lines were the oral epidermoid carcinoma cell lines KB and its vincristine-selected ABCB1-overexpressing KBv200 [10]; the breast carcinoma cell lines MCF-7 and its doxorubicin-selected ABCB1-overexpressing MCF-7/adr; the lung carcinoma cell line A549 and normal liver cell line LO2.
(§2) The MTT assay was used to evaluate the cytotoxicity of a number of compounds previously isolated from mangrove-derived fungi as described. Briefly, 3–4 × 10^3 cells were incubated in 96-well plates and allowed to attach overnight before compounds at full range concentrations were added. The concentrations were chosen so that the highest concentration killed most of the cells and the lowest killed none of the cells. After 72 h treatment, 0.5 mg/ml MTT was added to each well for an additional 4 h. Subsequently, the supernatant was removed, and the purple MTT-formazan crystals were dissolved by DMSO. Finally, absorbance was recorded at 540 nm with 655 nm as a reference filter using a Model 550 Microplate Reader (Bio-Rad, USA). Experiments were performed at least three times. The standard chemotherapeutic agent doxorubicin was used as a positive control in MTT assay and normal liver cell line LO2 was used to show whether cytotoxic activity was tumor-specific. The concentrations required to inhibit growth by 50% (IC50) were calculated from survival curves using the Bliss method.

The subject of series [1] is KB, KBv200, MCF-7, MCF-7/adr, and A549 cells. The series can be described thus: MTT anticancer screen, cancer cell panel. The series is classed as cell-based, human. Conditions: for IC50: Homo sapiens, MTT, KB, KBv200, MCF-7, MCF-7/adr, and A549 cells, read-out: IC50 values (potent cytotoxic activity); for IC50 values in MDR cells compared with parental sensitive cells: KBv200, MCF-7/adr versus KB, MCF-7. On the procedure:
as §1, §2

A further series deals with normal liver LO2 cells. The series can be described thus: MTT cytotoxicity assay, normal liver LO2 cells. Type of series: cell-based. Conditions: for IC50: Homo sapiens, L02, 72 h treatment; for IC50 / growth inhibitory activity in LO2 cells (in words): normal liver LO2 cells; for sensitivity of cancer cells compared with normal liver LO2 cells: cancer cells versus LO2 cells. The protocol:
as §1, §2

A further series has as its system KBv200 cells. In words: MTT cytotoxicity assay, KBv200 cells. Type of series: cell-based. Conditions: Homo sapiens, 72 h treatment, vincristine-selected ABCB1-overexpressing KBv200 cells. The protocol:
as §1, §2

The subject of a further series is MCF-7 cells. In words: MTT cytotoxicity assay, MCF-7 cells. The series is classed as cell-based. Conditions: Homo sapiens, MCF7, 72 h treatment, MCF-7 breast carcinoma cells. The protocol:
as §1, §2
(In general: Tetrazolium dyes change colour on reduction, which living cells bring about.)

The next series has as its system MCF-7/adr cells. The series can be described thus: MTT cytotoxicity assay, MCF-7/adr cells. Conditions: Homo sapiens, NCI/ADR-RES, 72 h treatment, doxorubicin-selected ABCB1-overexpressing MCF-7/adr cells. The series is classed as cell-based. The protocol: as §1, §2
For the next series, the system named is KB cells. In words: MTT cytotoxicity assay, KB cells. Type of series: cell-based. Conditions: Homo sapiens, 72 h treatment, KB oral epidermoid carcinoma cells. On the procedure: as §1, §2

Consider `C=C/C=C/COc1cccc2c1C(=O)c1c(O)cccc1C2=O` [Compound 13], for which, in the series with pcDNA3.1(+) DNA, the “DNA intercalation / binding to DNA” value is recorded as “none of the compounds investigated here showed binding to DNA”. Moreover, the IC50 in the series on A549 cells is 31.2 ± 2.02 µM; in series [1], below 50 µM; with normal liver LO2 cells, above 50 µM; in the series with KBv200 cells, above 50 µM; in the series with MCF-7 cells, 16.3 ± 0.71 µM; in the series on MCF-7/adr cells, above 50 µM. The same compound registered an IC50 with KB cells of 21 ± 1.35 µM. In addition, in series [1], the “IC50 values in MDR cells compared with parental sensitive cells” value was “much higher IC50 values”.

For the compound `C#CCOc1cc(C)cc2c1C(=O)c1c(O)cccc1C2=O` [Compound 14], the “DNA intercalation / binding to DNA” value with pcDNA3.1(+) DNA is “none of the compounds investigated here showed binding to DNA”. Besides, the 50% inhibitory concentration (IC50) with A549 cells was 23.5 ± 1.32 µM; in series [1], below 50 µM; in the series with normal liver LO2 cells, 37.5 ± 1.64 µM; in the series with KBv200 cells it was above 50 µM; in the series on MCF-7 cells, 35.2 ± 1.87 µM; with MCF-7/adr cells, above 50 µM. The compound also returned an IC50 in the series on KB cells of 11.9 ± 0.69 µM. Also, the “IC50 values in MDR cells compared with parental sensitive cells” value in series [1] is “much higher IC50 values”.

For `COc1cccc2c1C(=O)c1c(O)c3c(c(O)c1C2=O)C[C@@](O)(C(=O)CO)C[C@@H]3O[C@H]1C[C@H](N)[C@H](O)[C@H](C)O1` [Doxorubicin, reference compound], the “DNA intercalation / binding to DNA” value in the series with pcDNA3.1(+) DNA is “effectively intercalated into DNA in a concentration-dependent manner”. In addition, the half-inhibitory concentration (IC50) with A549 cells came to 1.67 ± 0.09 µM; with normal liver LO2 cells, 0.11 ± 0.01 µM; in the series on KBv200 cells, 3.21 ± 0.12 µM; in the series on MCF-7 cells, 0.39 ± 0.02 µM; with MCF-7/adr cells, 22.3 ± 1.56 µM; in the series on KB cells, 0.05 ± 0.003 µM. Also, the “IC50 values in MDR cells compared with parental sensitive cells” value in series [1] is reported as “much higher IC50 values”.

As to `CCOC(=O)COc1cc(C)cc2c1C(=O)c1c(O)cccc1C2=O` [Compound 11], in the series on pcDNA3.1(+) DNA, the “DNA intercalation / binding to DNA” value is reported as “none of the compounds investigated here showed binding to DNA”. The half-inhibitory concentration (IC50) in the series with A549 cells was 21.3 ± 1.6 µM; in series [1] it was below 50 µM; with normal liver LO2 cells, 28.9 ± 1.46 µM; with KBv200 cells, 18.9 ± 1.2 µM; in the series with MCF-7 cells, 13.2 ± 0.84 µM; in the series with MCF-7/adr cells it was 35.3 ± 2.77 µM. In addition, the IC50 in the series with KB cells stood at 5.89 ± 0.37 µM. In the series with normal liver LO2 cells, the “growth inhibitory activity in LO2 cells (in words)” value was “exhibited growth inhibitory activity in LO2 cells”.

Take `Cc1c(CO)cc([N+](=O)[O-])cc1CO` [Compound 1]: in the series with pcDNA3.1(+) DNA, the “DNA intercalation / binding to DNA” value is “none of the compounds investigated here showed binding to DNA”. The IC50 is 2.71 ± 0.15 µM with A549 cells; below 50 µM in series [1]; 6.59 ± 0.44 µM in the series on normal liver LO2 cells; 2.67 ± 0.17 µM in the series on KBv200 cells; 1.38 ± 0.07 µM with MCF-7 cells; 2.34 ± 0.11 µM in the series on MCF-7/adr cells. For the same compound, in the series on KB cells, inhibition was half-maximal at 1.57 ± 0.08 µM (IC50). For the same compound, the “sensitivity of cancer cells compared with normal liver LO2 cells” value in the series on normal liver LO2 cells is “more sensitive”.

As to `Cc1c(O)cc(O)c(C(=O)O)c1C` [Compound 4], the “DNA intercalation / binding to DNA” value with pcDNA3.1(+) DNA was “none of the compounds investigated here showed binding to DNA”. In addition, the IC50 is 17.1 ± 1.03 µM in the series with A549 cells; below 50 µM in series [1]; 16.5 ± 1.22 µM in the series with normal liver LO2 cells; 6.74 ± 0.38 µM in the series with KBv200 cells; 11.7 ± 0.86 µM in the series on MCF-7 cells; 35.7 ± 2.08 µM in the series with MCF-7/adr cells. This compound also registered an IC50 with KB cells of 1.15 ± 0.06 µM. In addition, the “growth inhibitory activity in LO2 cells (in words)” value with normal liver LO2 cells is “exhibited growth inhibitory activity in LO2 cells”.

In the case of `O=C1c2ccc(O)cc2OCC1c1ccc(O)cc1` (stereo not drawn) [Compound 78], in the series on pcDNA3.1(+) DNA, the “DNA intercalation / binding to DNA” value is listed as “none of the compounds investigated here showed binding to DNA”. Further, the IC50 is 14.9 ± 0.64 µM in the series with A549 cells; below 50 µM in series [1]; 33.6 ± 2.06 µM in the series with normal liver LO2 cells; 9.37 ± 0.61 µM in the series on KBv200 cells; 19.8 ± 0.89 µM in the series on MCF-7 cells; 24.9 ± 1.15 µM in the series with MCF-7/adr cells. Further, in the series on KB cells, 8.63 ± 0.57 µM corresponded to half-maximal inhibition (IC50). Moreover, in series [1] (MTT assay in vitro), the “cytotoxic / anticancer activity (in words)” value was “exhibited a cytotoxicity targeted to cancer cells”. Further, the “sensitivity of cancer cells compared with normal liver LO2 cells” value with normal liver LO2 cells was “more sensitive”.

As for `O=C1c2cc(O)cc(O)c2C(=O)c2c1cc1c(c2O)C2CCCC(O1)O2` (stereo not drawn) [Compound 18], the “DNA intercalation / binding to DNA” value with pcDNA3.1(+) DNA is listed as “none of the compounds investigated here showed binding to DNA”. Further, the IC50 was 33.9 ± 2.31 µM in the series with A549 cells; below 50 µM in series [1]; above 50 µM in the series with normal liver LO2 cells; 44.6 ± 2.57 µM in the series with KBv200 cells; 17.2 ± 0.95 µM in the series on MCF-7 cells; 25 ± 1.06 µM in the series with MCF-7/adr cells. In addition, in the series with KB cells, the IC50 is 28.2 ± 1.66 µM. Besides, the “sensitivity of cancer cells compared with normal liver LO2 cells” value in the series on normal liver LO2 cells is listed as “more sensitive”.
